Data taken from ChEMBL document CHEMBL1201862, “PubChem BioAssay data set” (2004).
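Results reflect a 48-hour exposure of cells in 96-well plates to compound at five concentrations. At the GI50, growth is halved.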 Active and inactive are the calls of the source. Rule as the data show it: active = GI50 up to about 1.1 µM and inactive = higher.

Tests used:
Assay in all cases: NCI tumour cell line growth inhibition, 48 h
786-0 = test system: 786-0
A549 = test system: A549
ACHN = test system: ACHN
BT-549 = test system: BT-549
HT-29 = test system: HT-29
Hs-578T = test system: Hs-578T
IGROV-1 = test system: IGROV-1
KM12 = test system: KM12
MDA-MB-231 = test system: MDA-MB-231
NCI-H460 = test system: NCI-H460
OVCAR-8 = test system: OVCAR-8
SF-295 = test system: SF-295
SF-539 = test system: SF-539
SK-MEL-28 = test system: SK-MEL-28
SR = test system: SR
UACC-257 = test system: UACC-257
CAKI-1 = test system: CAKI-1
MOLT-4 = test system: MOLT-4
SK-OV-3 = test system: SK-OV-3
T47D = test system: T47D

Row | Structure (SMILES) | GI50 (786-0) | GI50 (A549) | GI50 (ACHN) | GI50 (BT-549) | GI50 (HT-29) | GI50 (Hs-578T) | GI50 (IGROV-1) | GI50 (KM12) | GI50 (MDA-MB-231) | GI50 (NCI-H460) | GI50 (OVCAR-8) | GI50 (SF-295) | GI50 (SF-539) | GI50 (SK-MEL-28) | GI50 (SR) | GI50 (UACC-257) | GI50 (CAKI-1) | GI50 (MOLT-4) | GI50 (SK-OV-3) | GI50 (T47D)
1 | O=c1cc(NNc2ccc3ccccc3c2)[nH]c(=S)[nH]1 | 6.75 µM (inactive) | > 100 µM (inactive) | 31.6 µM (inactive) | 39.6 µM (inactive) | 16.4 µM (inactive) | 25 µM (inactive) | 22.5 µM (inactive) | 17.7 µM (inactive) | 42.8 µM (inactive) | 40.9 µM (inactive) | 44.9 µM (inactive) | 61.9 µM (inactive) | 30.3 µM (inactive) | 49.9 µM (inactive) | 29.7 µM (inactive) | > 100 µM (inactive) | – | – | – | –
2 | CCOC(=O)NC(Nc1ncn(C(NC(=O)OCC)(C(F)(F)F)C(F)(F)F)n1)(C(F)(F)F)C(F)(F)F | > 100 µM (inactive) | > 100 µM (inactive) | > 100 µM (inactive) | – | > 100 µM (inactive) | > 100 µM (inactive) | > 100 µM (inactive) | > 100 µM (inactive) | > 100 µM (inactive) | > 100 µM (inactive) | > 100 µM (inactive) | > 100 µM (inactive) | > 100 µM (inactive) | > 100 µM (inactive) | > 100 µM (inactive) | > 100 µM (inactive) | > 100 µM (inactive) | > 100 µM (inactive) | > 100 µM (inactive) | 49 µM (inactive)
3 | CCOC(=O)C(Cl)(NC(=O)c1ccc(F)cc1)C(F)(F)F (stereo not drawn) | > 100 µM (inactive) | > 100 µM (inactive) | > 100 µM (inactive) | – | > 100 µM (inactive) | > 100 µM (inactive) | > 100 µM (inactive) | 39.2 µM (inactive) | > 100 µM (inactive) | > 100 µM (inactive) | > 100 µM (inactive) | > 100 µM (inactive) | > 100 µM (inactive) | > 100 µM (inactive) | > 100 µM (inactive) | > 100 µM (inactive) | > 100 µM (inactive) | > 100 µM (inactive) | > 100 µM (inactive) | > 100 µM (inactive)
4 | O=C1/C(=c2\s/c(=C\c3ccccc3)c(=O)n2-c2ccccc2)SC(=S)N1c1ccccc1 | 45.8 µM (inactive) | 34.8 µM (inactive) | 22.3 µM (inactive) | – | > 100 µM (inactive) | 34.4 µM (inactive) | 25 µM (inactive) | 71.8 µM (inactive) | 20.5 µM (inactive) | 41 µM (inactive) | 82.6 µM (inactive) | 30.3 µM (inactive) | 21.5 µM (inactive) | 63.1 µM (inactive) | 10.7 µM (inactive) | 72.9 µM (inactive) | 0.131 µM (active) | 45.4 µM (inactive) | 21.9 µM (inactive) | –
5 | O=C(CCCCCCCCCCc1ccccc1)C1=C(O)CC(O)CC1=O (stereo not drawn) | 58.1 µM (inactive) | 42.1 µM (inactive) | 58.5 µM (inactive) | – | 47.6 µM (inactive) | – | 72.4 µM (inactive) | 38.4 µM (inactive) | – | 46.3 µM (inactive) | 49.7 µM (inactive) | 56.8 µM (inactive) | 86.7 µM (inactive) | 72.4 µM (inactive) | 40.9 µM (inactive) | 63.1 µM (inactive) | 94.4 µM (inactive) | 40.5 µM (inactive) | > 100 µM (inactive) | –
6 | CCOC(=O)C1=C(Nc2ccccc2)SCC1=O | > 100 µM (inactive) | > 100 µM (inactive) | > 100 µM (inactive) | – | > 100 µM (inactive) | – | > 100 µM (inactive) | > 100 µM (inactive) | – | > 100 µM (inactive) | > 100 µM (inactive) | > 100 µM (inactive) | > 100 µM (inactive) | > 100 µM (inactive) | > 100 µM (inactive) | > 100 µM (inactive) | > 100 µM (inactive) | > 100 µM (inactive) | > 100 µM (inactive) | –
7 | O=C1Nc2cc([N+](=O)[O-])c(Br)cc2C1=O | 18.5 µM (inactive) | 95.7 µM (inactive) | 18.2 µM (inactive) | – | 20.2 µM (inactive) | – | 17.5 µM (inactive) | 51.4 µM (inactive) | – | 30.5 µM (inactive) | 16.4 µM (inactive) | 3.68 µM (inactive) | 22.4 µM (inactive) | 21.3 µM (inactive) | 10.2 µM (inactive) | 18 µM (inactive) | 19.1 µM (inactive) | 10.4 µM (inactive) | 17.5 µM (inactive) | –
8 | COc1ccc(/C=C/C(=O)C(C)C)cc1 | 71.3 µM (inactive) | 69.2 µM (inactive) | 50.9 µM (inactive) | – | 29 µM (inactive) | – | > 100 µM (inactive) | 33.6 µM (inactive) | – | 26.8 µM (inactive) | 34.8 µM (inactive) | 31.6 µM (inactive) | 46.2 µM (inactive) | > 100 µM (inactive) | 25.2 µM (inactive) | 63.7 µM (inactive) | 44.8 µM (inactive) | 33.2 µM (inactive) | 31 µM (inactive) | –
9 | CC(=O)NC1=C(C)C(=O)c2c(nc3n2CCC3O)C1=N (stereo not drawn) | 18.6 µM (inactive) | 30.8 µM (inactive) | 16.3 µM (inactive) | – | 17.6 µM (inactive) | – | 18.7 µM (inactive) | 18.5 µM (inactive) | – | 22 µM (inactive) | 4.55 µM (inactive) | 19.3 µM (inactive) | 4.15 µM (inactive) | 17.2 µM (inactive) | > 100 µM (inactive) | 3.9 µM (inactive) | 13.4 µM (inactive) | 1.95 µM (inactive) | 28.2 µM (inactive) | –
10 | CC(C)(NO)/C(=N\O)c1ccco1 | > 100 µM (inactive) | > 100 µM (inactive) | > 100 µM (inactive) | – | > 100 µM (inactive) | 24 µM (inactive) | > 100 µM (inactive) | > 100 µM (inactive) | > 100 µM (inactive) | > 100 µM (inactive) | > 100 µM (inactive) | > 100 µM (inactive) | > 100 µM (inactive) | > 100 µM (inactive) | > 10 µM (inactive) | > 100 µM (inactive) | > 100 µM (inactive) | 20.1 µM (inactive) | > 100 µM (inactive) | > 100 µM (inactive)
11 | COc1cc(CNc2nc3cc(C(F)(F)F)ccc3nc2-c2ccccc2)cc(OC)c1OC | 30 µM (inactive) | 37.3 µM (inactive) | 16.7 µM (inactive) | – | 23.7 µM (inactive) | 37.4 µM (inactive) | 25.9 µM (inactive) | 14.8 µM (inactive) | 20.6 µM (inactive) | 25.4 µM (inactive) | 33.2 µM (inactive) | 41.8 µM (inactive) | 43.1 µM (inactive) | 49.7 µM (inactive) | 15.9 µM (inactive) | 33.6 µM (inactive) | 39.4 µM (inactive) | 12.9 µM (inactive) | – | 1.65 µM (inactive)
12 | CC(C)(C)NC(NC(C)(C)C)=C(/C=C(/Cl)[N+](=O)[O-])[N+](=O)[O-] | 34.7 µM (inactive) | 25.7 µM (inactive) | 65.3 µM (inactive) | – | 41.8 µM (inactive) | 56.9 µM (inactive) | 51.8 µM (inactive) | > 100 µM (inactive) | > 100 µM (inactive) | 52.2 µM (inactive) | 38.7 µM (inactive) | > 100 µM (inactive) | 38.3 µM (inactive) | > 100 µM (inactive) | 32.6 µM (inactive) | 94 µM (inactive) | > 100 µM (inactive) | 48.3 µM (inactive) | > 100 µM (inactive) | 68.5 µM (inactive)
